Residues, ends and D or L forms follow the SMILES beside them.
Experiments:
MRSA, ATCC# 43300 = type: cell-based, Staphylococcus aureus
Description: (§1) MIC assays (MRSA, ATCC# 43300/ MSSA, ATCC# 6538) were performed according to CLSI guidelines. […] Thereafter, samples were treated with peptide concentrations ranging from 10, 5, 2.5, 2, 1.75, 1.5 1.25, 1, 0,85, 0.625 and 0.313 µg/mL. Human antimicrobial peptide LL-37 was utilized as a positive control at a concentration of 256 μg/mL, as it is one of the best-known examples of AMP-based drug development. The assay was performed in triplicates. Efficacy was assessed according to the viable bacterial load determined by dilution plating and counting of Colony Forming Units (CFU). The lowest concentration that inhibited bacterial growth after 24 h of incubation is the MIC. Growth curve were performed using a plate reader (Synergy 2, Biotek).

[1] = system: methicillin-resistant Staphylococcus aureus; conditions: no reference given, cited from earlier work
Description: We evaluated the antimicrobial activity of the synthesized peptides by assessing their MIC against Meticillin-Sensitive Staphylococcus aureus and Methicillin-resistant Staphylococcus aureus (MSSA and MRSA). […] The MIC of vancomycin of 2 µg/mL was used as ... || The skin mucus-derived AMPs were initially characterized, and 22 candidate peptides were identified and ranked based on their likelihood of having antibacterial activities (Table 1, Supl. 2).

MSSA, ATCC# 6538 = test: MIC assay according to CLSI guidelines against MSSA; type: cell-based, Staphylococcus aureus; conditions: 24 h, 37°C; peptides listed in order of lowest to highest MIC; Fig 2A
Description: as §1

[2] = system: T-47D mammary carcinoma cells; test: Apoptosis assay (Apo-ONE Homogeneous Caspase-3/7) in T-47D cells; type: cell-based, human; conditions: for apoptotic activity compared to the control in T-47D cells: 1 µg/ml peptide; for apoptotic activity compared to the control in T-47D cells / caspase-3/7 activity (apoptotic induction) in T-47D cells: 24 h stimulation, fluorescence (RFU); for caspase-3/7 activity (apoptotic induction) in T-47D cells: 10 µg/ml peptide; for apoptosis in cancerous breast tissue cells (T-47D): all concentrations tested (1µg, 5µg, and 10µg), 24 h, compared with MCF10A, t-test
[3] = system: T-47D mammary carcinoma cells; test: Gene expression analysis, Human Breast Cancer RT2 Profiler PCR array; type: cell-based; conditions: 10 µg/mL peptide, 24 h, ΔΔCt vs unstimulated control, fold change above 2
Description: Three 75 cm^2 cell culture flasks containing the T-47D and three 75 cm^2 cell culture flasks containing the MCF10A cells were individually stimulated with peptides 1, 12, or 13 at a concentration of 10 µg/mL. An unstimulated cell culture flask was left as a control. Cells were incubated for 24 hours according to standard protocol at 37°C and 5% CO2, in a humidified atmosphere.
After 24 hours, the cells were detached, and RNA was isolated according to the Macherey-Nagel kit. RNA quality was assessed using a NanoDrop 1000 spectrophotometer and gel electrophoresis. To create cDNA the iScript cDNA Synthesis Kit (BioRad) was used and followed according to manufacturer’s instructions. For gene expression analysis, the Human Breast Cancer RT2 Profiler PCR array was used (Qiagen) according to manufacturer’s instructions. On this plate, forward and reverse primers were already included in each well for the respective genes. The qPCR cycling conditions were as follows: 8.5 min at 95°C, […] at 55°C, […] at 72°C and 4°C as holding temperature. Housekeeping gene stability was validated, and results were geometrically averaged. Beta (β)-actin was used for endogenous controls. Expression of carcinogenic markers was quantified relative by the ΔΔCt method and results were normalized to housekeeping genes (Livak and Schmittgen, 2001). The Ct values of the untreated samples were set to zero. The Ct values of the MCF10A samples were subtracted from the Ct values of the T-47D samples. Relative gene expression was calculated from the zero line using Microsoft Excel Version 2016 software (Microsoft Cooperation, Redmond, WA, USA). The resulting higher or lower expressions of the analyzed genes were presented. Gene expression was measured using the BioRad i-Cycler.

| Compound | MIC against methicillin-resistant Staphylococcus aureus (MRSA) (MRSA, ATCC# 43300; ATCC# 43300, 24 h) [µg/mL] | MIC of vancomycin used as threshold for identifying inhibitory effects ([1]; threshold for MRSA and MSSA in Fig 2A) [µg/mL] | MIC values reported against similar MRSA strains ([1]; typical reported range) [µg/mL] | inhibitory effect against MRSA (MIC relative to vancomycin threshold of 2 µg/mL) (MRSA, ATCC# 43300; 24 h, 37°C, peptides listed in order of lowest to highest MIC, Fig 2A) | inhibitory effect against MSSA (MIC relative to vancomycin threshold of 2 µg/mL) (MSSA, ATCC# 6538) | apoptotic activity compared to the control in T-47D cells [2] | caspase-3/7 activity (apoptotic induction) in T-47D cells [2] | apoptosis in cancerous breast tissue cells (T-47D) [2] | genes with significant decrease in expression [3] | genes with significant increase in expression [3] |
| --- | --- | --- | --- | --- | --- | --- | --- | --- | --- | --- |
| CC[C@H](C)[C@H](NC(=O)CNC(=O)CNC(=O)[C@H](CO)NC(=O)[C@H](C)NC(=O)CNC(=O)[C@H](CC(C)C)NC(=O)[C@@H](NC(=O)[C@H](C)NC(=O)[C@@H](N)C(C)C)C(C)C)C(=O)NCC(=O)N[C@@H](CCC(N)=O)C(=O)N1CCC[C@H]1C(=O)N[C@@H](CC(C)C)C(=O)N[C@@H](CO)C(=O)N[C@@H](CC(C)C)C(=O)N[C@@H](CC(C)C)C(=O)N[C@@H](CC(C)C)C(=O)N[C@@H](CCCCN)C(=O)O [Peptide 1] (H-VAVLGASGGIGQPLSLLLK-OH) | 2 |  |  |  |  |  |  |  |  |  |
| CN[C@H](CC(C)C)C(=O)N[C@H]1C(=O)N[C@@H](CC(N)=O)C(=O)N[C@H]2C(=O)N[C@H]3C(=O)N[C@H](C(=O)N[C@H](C(=O)O)c4cc(O)cc(O)c4-c4cc3ccc4O)[C@H](O)c3ccc(c(Cl)c3)Oc3cc2cc(c3O[C@@H]2O[C@H](CO)[C@@H](O)[C@H](O)[C@H]2O[C@H]2C[C@](C)(N)[C@H](O)[C@H](C)O2)Oc2ccc(cc2Cl)[C@H]1O [vancomycin] |  | 2 | 0.5 to 2 |  |  |  |  |  |  |  |
| FGANALLGVSLAVcKAGAAEK [Peptide 13, synthetic analog of axolotl skin mucus AMP, rank 13] |  |  |  | inhibitory effect | Inhibitory effects | less distinct | highest levels of caspase-3/7 activity | significantly increased apoptosis | IL6 and MMP2 | BRCA1, BRCA2, NR3C1, SERPINE1, and XBP1 |
| ILLLcVGEAGDTVQFAEYIQK [Peptide 12, synthetic analog of axolotl skin mucus AMP, rank 12] |  |  |  |  |  | increased apoptotic activity compared to the control | highest levels of caspase-3/7 activity | significantly increased apoptosis | CCND2, EGF, GLI1, KRT5, MMP2, and SERPINE1 | BRCA1, JUN, NR3C1, RB1, SFN, and XBP1 |

— publication PMC11882074, “Identification of antimicrobial peptides from the Ambystoma mexicanum displaying antibacterial and antitumor activity” (PLOS One, 2025)
